Measurements from patent US5935829A, “Mutation assays involving blood cells that metabolize toxic substances” (priority 1992, dated 1999).
Read-outs that look alike come from different tables or passages of the source.

Assays:
[1] = test system: AHH-1 cells
[2] = in vitro; conditions: human, ahh-1 cells, RELATIVE SURVIVAL; for viability at 48 h, 5000 µM: 5 mM × 48 hours; for viability at 48 h, 14000 µM: 14 mM × 48 hours; for viability at 48 h, 28000 µM: 28 mM × 48 hours; for viability at 48 h, 300 µM: 300 μM × 48 hours
[3] = test system: 6-TG^r AHH-1 cells; assay: in vitro; type: cell-based, human; conditions: varying concentrations of ICR-191
Description: (§1) Preferential survival during toxic treatment tested by exposing two sets of cells to varying concentrations of ICR-191.

[4] = in vitro; type: cell-based, human; conditions: human, 6-tg resistant ahh-1 cells, 6-TG^r AHH-1 cells, read-out: Relative Survival
Description: as §1

[5] = test system: AHH-1 cells; assay: Phenotypic expression of ICR-191 induced mutation; type: cell-based, human
Method: AHH-1 cell cultures were contacted with ICR-191 (Polysciences Inc, Warrington Pa.) which is a known mutagen comprising an acridine mustard derivative, at varying concentrations ranging up to 1.0 μM, for 24 hours. The cultures were resuspended in growth medium and allowed to grow. At different times after treatment, the cells were contacted with 6-TG to determine the mutant fraction.

[6] = in vitro; type: cell-based; conditions: human, ahh-1 cells, read-out: Relative Survival
Description: as §1

[7] = 10 μM × 48 hours, induction BNF
[8] = 100 μM × 48 hours, induction BNF
[9] = 100 μM × 48 hours, induction none
[10] = 600 μM × 48 hours, induction none

In the case of `CN(C)N=O` [DMN, dimethylnitrosamine], the “MUTANT FRACTION × 10^6, MEAN ± STD.DEV.” value ([1]; 5 mM × 48 hours, induction BNF) is reported as 4.0 ± 0.7 × 10^6, the “MUTANT FRACTION × 10^6, MEAN ± STD.DEV.” value ([1]; 5 mM × 48 hours, induction none) is reported as 3.5 ± 0.7 × 10^6 and the “MUTANT FRACTION × 10^6, MEAN ± STD.DEV.” value ([1]; 14 mM × 48 hours, induction BNF) is reported as 8.0 ± 2.0 × 10^6. The “MUTANT FRACTION × 10^6, MEAN ± STD.DEV.” value ([1]; 14 mM × 48 hours, induction none) was 3.5 ± 0.7 × 10^6, the “MUTANT FRACTION × 10^6, MEAN ± STD.DEV.” value ([1]; 28 mM × 48 hours, induction BNF) was 8.6 ± 2.1 × 10^6 and the “MUTANT FRACTION × 10^6, MEAN ± STD.DEV.” value ([1]; 28 mM × 48 hours, induction none) was 4.1 ± 1.3 × 10^6. For the same molecule, the viability at 48 h, 5000 µM ([2]; induction BNF) was 112%, the viability at 48 h, 5000 µM ([2]; induction none) was 98% and the viability at 48 h, 14000 µM ([2]; induction BNF) was 100%. It also gave a viability at 48 h, 14000 µM ([2]; induction none) of 92%, a viability at 48 h, 28000 µM ([2]; induction BNF) of 87% and a viability at 48 h, 28000 µM ([2]; induction none) of 81%.
With `CCOS(C)(=O)=O` [EMS, ethyl methanesulfonate] the “MUTANT FRACTION × 10^6, MEAN ± STD.DEV.” value ([1]; 59 μM × 24 hours) was 6.3 ± 1.3 × 10^6, the “MUTANT FRACTION × 10^6, MEAN ± STD.DEV.” value ([1]; 100 μM × 24 hours) was 20 ± 5 × 10^6 and the viability at 24 h, 59 µM ([2]; 59 μM × 24 hours) was 48%. For the same molecule, the viability at 24 h, 100 µM ([2]; 100 μM × 24 hours) was 36%.
For `c1ccc2c(c1)-c1cccc3cccc-2c13` [Fla, fluoranthene], the “RELATIVE SURVIVAL” value ([1]; human, ahh-1 cells, 48 h, 40 µM) was 0.70, the viability at 48 h, 10 µM [2] was 105% and the viability at 48 h, 20 µM [2] was 93%. For the same molecule, the viability at 48 h, 40 µM [2] was 75%, the viability at 48 h, 50 µM [2] was 67% and the viability at 48 h, 100 µM [2] was 45%.
With `COc1ccc2nc3cc(Cl)ccc3c(NCCCNCCCl)c2c1` [ICR-191] the “difference in survival rate between non-resistant and 6-TG resistant AHH-1 cells” value [3] was “did not reach the level of statistical significance”, the viability at 24 h ([4]; 0.25 μg/ml at 24 hrs) was 48% and the viability at 24 h ([4]; 0.5 μg/ml at 24 hrs) was 20%. For the same molecule, the viability at 24 h ([4]; 1.0 μg/ml at 24 hrs) was 14%, the “MUTANT FRACTION × 10^6, MEAN ± STD.DEV.” value ([1]; 0.63 μM × 24 hours) was 62 ± 11 × 10^6 and the “MUTANT FRACTION × 10^6, MEAN ± STD.DEV.” value ([1]; 1.25 μM × 24 hours) was 116 ± 17 × 10^6. The “MUTANT FRACTION × 10^6, MEAN ± STD.DEV.” value ([1]; 2.5 μM × 24 hours) was 147 ± 28 × 10^6, the viability at 24 h, 0.63 µM ([2]; 0.63 μM × 24 hours) was 65% and the viability at 24 h, 1.25 µM ([2]; 1.25 μM × 24 hours) was 48%. The viability at 24 h, 2.5 µM ([2]; 2.5 μM × 24 hours) was 13%, the “time to full expression of induced mutation” value ([5]; ICR-191 up to 1.0 μM, 24 hours) was ≤ 6 days and the “mutant fraction stability after full expression” value ([5]; up to 14 days) was “remained relatively stable”. It also gave a viability at 24 h ([6]; 0.25 μg/ml at 24 hrs) of 65%, a viability at 24 h ([6]; 0.5 μg/ml at 24 hrs) of 48% and a viability at 24 h ([6]; 1.0 μg/ml at 24 hrs) of 13%.
With `C/C=C(/C)C(=O)O[C@H]1CCN2CC=C(COC(=O)[C@@](O)([C@H](C)OC)C(C)(C)O)[C@H]12` [LSCP, lasiocarpine] the “MUTANT FRACTION × 10^6, MEAN ± STD.DEV.” value [1, 7] was 3.9 ± 1 × 10^6, the “MUTANT FRACTION × 10^6, MEAN ± STD.DEV.” value [1, 8] was 4.3 ± 1 × 10^6 and the “MUTANT FRACTION × 10^6, MEAN ± STD.DEV.” value [1, 9] was 5.4 ± 0.6 × 10^6. For the same molecule, the “MUTANT FRACTION × 10^6, MEAN ± STD.DEV.” value ([1]; 300 μM × 48 hours, induction BNF) was 12.7 ± 2.1 × 10^6, the “MUTANT FRACTION × 10^6, MEAN ± STD.DEV.” value ([1]; 300 μM × 48 hours, induction none) was 6.2 ± 1.3 × 10^6 and the “MUTANT FRACTION × 10^6, MEAN ± STD.DEV.” value [1, 10] was 6.0 ± 1.4 × 10^6. The viability at 48 h, 10 µM [2, 7] was 103%, the viability at 48 h, 100 µM [2, 8] was 91% and the viability at 48 h, 100 µM [2, 9] was 130%. The viability at 48 h, 300 µM ([2]; induction BNF) was 81%, the viability at 48 h, 300 µM ([2]; induction none) was 89% and the viability at 48 h, 600 µM [2, 10] was 82%.
